Patent US20260007599A1, “TICAGRELOR IV FORMULATIONS FOR USE IN THE TREATMENT OF GRAM-POSITIVE BACTEREMIA” (Hyloris Developments SA, priority 2023, published 2026)
Marks after values point to notes of the source that are not given here.

Assay: Solubilization of ticagrelor in unbuffered cyclodextrin stock solutions in milli Q water, appearance on shaking platform;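 further: plus means clear and fully dissolved while plus-minus means clear solution with precipitation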
Type: physicochemical
Method: In a first example two different types of cyclodextrin were used and compared for the solubilization of ticagrelor. An unbuffered stock solution of HPBCD or SBECD was made in water at the target concentrations of 20 w/w %, 25 w/w %, 30 w/w %, 35 w/w % and 40 w/w %. Ticagrelor was added slowly under vortex. Ticagrelor was used at concentrations of 5, 10 or 14 mg/ml in milli Q water. The ticagrelor-cyclodextrin solutions were left on a shaking platform. No sonification or heat was applied.

CCCSc1nc(N[C@@H]2C[C@H]2c2ccc(F)c(F)c2)c2nnn([C@@H]3C[C@H](OCCO)[C@@H](O)[C@H]3O)c2n1 [ticagrelor, (1S,2S,3R,5S)-3-{7-[(1R,2S)-2-(3,4-difluorophenyl)cyclopropylamino]5-(propylthio)-3H-(1,2,3)triazolo (4,5-D)pyrimidin-3-yl}-5-(2 hydroxyethoxy) cyclopentane-1,2-diol]
Appearance in cyclodextrin (HPβCD 20% w/w, ticagrelor 5 mg/ml, after 5 min of shaking): − (translucent solution with precipitation) | Appearance in cyclodextrin (HPβCD 20% w/w, ticagrelor 5 mg/ml, after 30 min of shaking): +/− | Appearance in cyclodextrin (HPβCD 20% w/w, ticagrelor 5 mg/ml, after 60 min of shaking): +/− | Appearance in cyclodextrin (HPβCD 20% w/w, ticagrelor 5 mg/ml, after 3 h of shaking): +/− | Appearance in cyclodextrin (HPβCD 20% w/w, ticagrelor 5 mg/ml, after overnight shaking): − (translucent solution with precipitation) | Appearance in cyclodextrin (HPβCD 20% w/w, ticagrelor 10 mg/ml, after 5 min of shaking): − (translucent solution with precipitation) | Appearance in cyclodextrin (HPβCD 20% w/w, ticagrelor 10 mg/ml, after 30 min of shaking): − (translucent solution with precipitation) | Appearance in cyclodextrin (HPβCD 20% w/w, ticagrelor 10 mg/ml, after 60 min of shaking): − (translucent solution with precipitation) | Appearance in cyclodextrin (HPβCD 20% w/w, ticagrelor 10 mg/ml, after 3 h of shaking): − (translucent solution with precipitation) | Appearance in cyclodextrin (HPβCD 20% w/w, ticagrelor 10 mg/ml, after overnight shaking): − (translucent solution with precipitation) | Appearance in cyclodextrin (HPβCD 20% w/w, ticagrelor 14 mg/ml, after 5 min of shaking): − (translucent solution with precipitation) | Appearance in cyclodextrin (HPβCD 20% w/w, ticagrelor 14 mg/ml, after 30 min of shaking): − (translucent solution with precipitation) | Appearance in cyclodextrin (HPβCD 20% w/w, ticagrelor 14 mg/ml, after 60 min of shaking): − (translucent solution with precipitation) | Appearance in cyclodextrin (HPβCD 20% w/w, ticagrelor 14 mg/ml, after 3 h of shaking): − (translucent solution with precipitation) | Appearance in cyclodextrin (HPβCD 20% w/w, ticagrelor 14 mg/ml, after overnight shaking): − (translucent solution with precipitation) | Appearance in cyclodextrin (HPβCD 25% w/w, ticagrelor 5 mg/ml, after 5 min of shaking): − (translucent solution with precipitation) | Appearance in cyclodextrin (HPβCD 25% w/w, ticagrelor 5 mg/ml, after 30 min of shaking): +/− | Appearance in cyclodextrin (HPβCD 25% w/w, ticagrelor 5 mg/ml, after 60 min of shaking): +/− | Appearance in cyclodextrin (HPβCD 25% w/w, ticagrelor 5 mg/ml, after 3 h of shaking): +/− | Appearance in cyclodextrin (HPβCD 25% w/w, ticagrelor 5 mg/ml, after overnight shaking, after one hour of sonication): +* (clear, appeared completely dissolved) | Appearance in cyclodextrin (HPβCD 25% w/w, ticagrelor 10 mg/ml, after 5 min of shaking): − (translucent solution with precipitation) | Appearance in cyclodextrin (HPβCD 25% w/w, ticagrelor 10 mg/ml, after 30 min of shaking): − (translucent solution with precipitation) | Appearance in cyclodextrin (HPβCD 25% w/w, ticagrelor 10 mg/ml, after 60 min of shaking): − (translucent solution with precipitation) | Appearance in cyclodextrin (HPβCD 25% w/w, ticagrelor 10 mg/ml, after 3 h of shaking): − (translucent solution with precipitation) | Appearance in cyclodextrin (HPβCD 25% w/w, ticagrelor 10 mg/ml, after overnight shaking): − (translucent solution with precipitation) | Appearance in cyclodextrin (HPβCD 25% w/w, ticagrelor 14 mg/ml, after 5 min of shaking): − (translucent solution with precipitation) | Appearance in cyclodextrin (HPβCD 25% w/w, ticagrelor 14 mg/ml, after 30 min of shaking): − (translucent solution with precipitation) | Appearance in cyclodextrin (HPβCD 25% w/w, ticagrelor 14 mg/ml, after 60 min of shaking): − (translucent solution with precipitation) | Appearance in cyclodextrin (HPβCD 25% w/w, ticagrelor 14 mg/ml, after 3 h of shaking): − (translucent solution with precipitation) | Appearance in cyclodextrin (HPβCD 25% w/w, ticagrelor 14 mg/ml, after overnight shaking): − (translucent solution with precipitation) | Appearance in cyclodextrin (HPβCD 30% w/w, ticagrelor 5 mg/ml, after 5 min of shaking): − (translucent solution with precipitation) | Appearance in cyclodextrin (HPβCD 30% w/w, ticagrelor 5 mg/ml, after 30 min of shaking): +/− | Appearance in cyclodextrin (HPβCD 30% w/w, ticagrelor 5 mg/ml, after 60 min of shaking): +/− | Appearance in cyclodextrin (HPβCD 30% w/w, ticagrelor 5 mg/ml, after 3 h of shaking): +/− | Appearance in cyclodextrin (HPβCD 30% w/w, ticagrelor 5 mg/ml, after overnight shaking): + (clear, appeared completely dissolved) | Appearance in cyclodextrin (HPβCD 30% w/w, ticagrelor 10 mg/ml, after 5 min of shaking): − (translucent solution with precipitation) | Appearance in cyclodextrin (HPβCD 30% w/w, ticagrelor 10 mg/ml, after 30 min of shaking): − (translucent solution with precipitation) | Appearance in cyclodextrin (HPβCD 30% w/w, ticagrelor 10 mg/ml, after 60 min of shaking): − (translucent solution with precipitation) | Appearance in cyclodextrin (HPβCD 30% w/w, ticagrelor 10 mg/ml, after 3 h of shaking): − (translucent solution with precipitation) | Appearance in cyclodextrin (HPβCD 30% w/w, ticagrelor 10 mg/ml, after overnight shaking): − (translucent solution with precipitation) | Appearance in cyclodextrin (HPβCD 30% w/w, ticagrelor 14 mg/ml, after 5 min of shaking): − (translucent solution with precipitation) | Appearance in cyclodextrin (HPβCD 30% w/w, ticagrelor 14 mg/ml, after 30 min of shaking): − (translucent solution with precipitation) | Appearance in cyclodextrin (HPβCD 30% w/w, ticagrelor 14 mg/ml, after 60 min of shaking): − (translucent solution with precipitation) | Appearance in cyclodextrin (HPβCD 30% w/w, ticagrelor 14 mg/ml, after 3 h of shaking): − (translucent solution with precipitation) | Appearance in cyclodextrin (HPβCD 30% w/w, ticagrelor 14 mg/ml, after overnight shaking): − (translucent solution with precipitation) | Appearance in cyclodextrin (HPβCD 35% w/w, ticagrelor 5 mg/ml, after 5 min of shaking): +/− | Appearance in cyclodextrin (HPβCD 35% w/w, ticagrelor 5 mg/ml, after 30 min of shaking): +/− | Appearance in cyclodextrin (HPβCD 35% w/w, ticagrelor 5 mg/ml, after 60 min of shaking): +/− | Appearance in cyclodextrin (HPβCD 35% w/w, ticagrelor 5 mg/ml, after 3 h of shaking): +/− | Appearance in cyclodextrin (HPβCD 35% w/w, ticagrelor 5 mg/ml, after overnight shaking): + (clear, appeared completely dissolved) | Appearance in cyclodextrin (HPβCD 35% w/w, ticagrelor 10 mg/ml, after 5 min of shaking): − (translucent solution with precipitation) | Appearance in cyclodextrin (HPβCD 35% w/w, ticagrelor 10 mg/ml, after 30 min of shaking): +/− | Appearance in cyclodextrin (HPβCD 35% w/w, ticagrelor 10 mg/ml, after 60 min of shaking): +/− | Appearance in cyclodextrin (HPβCD 35% w/w, ticagrelor 10 mg/ml, after 3 h of shaking): +/−
